In assay [1] the target is Hepatocyte growth factor receptor (Homo sapiens, UniProt P08581).
Description: Inhibition of c-Met kinase (unknown origin) assessed as decrease in phosphorylation of TK substrate-biotin peptide preincubated for 5 to 10 mins followed by ATP addition measured after 30 mins by HTRF assay
A further assay concerns NCI-H1993. Briefly: Cytotoxicity against human NCI-H1993 cells assessed as growth inhibition after 72 hrs by CCK-8 assay. Particulars: NCI-H1993, 72 h. For orientation: Formazan colour is commonly taken as a measure of viable cells.

Chain of Hepatocyte growth factor receptor (P08581 whole entry): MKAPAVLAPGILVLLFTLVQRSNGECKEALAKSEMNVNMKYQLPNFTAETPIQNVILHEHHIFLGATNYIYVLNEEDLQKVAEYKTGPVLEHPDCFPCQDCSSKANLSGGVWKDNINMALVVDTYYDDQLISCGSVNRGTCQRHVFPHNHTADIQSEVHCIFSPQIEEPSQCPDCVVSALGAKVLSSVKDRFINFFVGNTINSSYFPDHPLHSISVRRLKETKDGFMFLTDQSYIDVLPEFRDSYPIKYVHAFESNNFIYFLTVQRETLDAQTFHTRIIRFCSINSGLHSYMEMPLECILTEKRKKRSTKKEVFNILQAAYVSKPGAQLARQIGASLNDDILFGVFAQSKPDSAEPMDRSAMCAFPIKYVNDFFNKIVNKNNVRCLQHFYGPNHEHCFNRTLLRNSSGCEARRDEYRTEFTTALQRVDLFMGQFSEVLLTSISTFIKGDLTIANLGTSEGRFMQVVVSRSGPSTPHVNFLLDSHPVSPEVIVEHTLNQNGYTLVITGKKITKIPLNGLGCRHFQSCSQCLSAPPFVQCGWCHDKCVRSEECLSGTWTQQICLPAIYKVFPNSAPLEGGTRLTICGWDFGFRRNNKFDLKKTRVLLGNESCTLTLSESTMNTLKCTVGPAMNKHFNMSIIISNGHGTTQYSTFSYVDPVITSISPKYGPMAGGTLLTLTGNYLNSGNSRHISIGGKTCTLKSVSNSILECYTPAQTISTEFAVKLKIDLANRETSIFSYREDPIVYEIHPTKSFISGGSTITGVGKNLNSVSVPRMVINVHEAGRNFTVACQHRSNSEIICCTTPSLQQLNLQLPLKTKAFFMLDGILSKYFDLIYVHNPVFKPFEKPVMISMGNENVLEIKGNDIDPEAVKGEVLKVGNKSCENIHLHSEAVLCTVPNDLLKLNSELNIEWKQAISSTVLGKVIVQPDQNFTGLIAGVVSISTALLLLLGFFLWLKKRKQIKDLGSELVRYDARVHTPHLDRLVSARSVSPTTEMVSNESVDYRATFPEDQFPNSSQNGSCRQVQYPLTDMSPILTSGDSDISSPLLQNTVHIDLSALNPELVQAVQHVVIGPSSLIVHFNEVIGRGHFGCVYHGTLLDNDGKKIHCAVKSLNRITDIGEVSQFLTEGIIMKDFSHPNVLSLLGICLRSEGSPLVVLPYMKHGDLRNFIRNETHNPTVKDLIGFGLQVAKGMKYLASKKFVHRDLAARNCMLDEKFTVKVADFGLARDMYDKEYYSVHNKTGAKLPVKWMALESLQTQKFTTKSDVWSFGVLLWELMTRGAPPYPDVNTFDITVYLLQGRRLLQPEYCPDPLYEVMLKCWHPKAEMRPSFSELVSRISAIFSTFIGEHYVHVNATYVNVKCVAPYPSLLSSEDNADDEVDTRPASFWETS

In general, IC50 refers to the concentration needed to halve the response being measured. Consider `CC(c1cc(F)c2ncccc2c1)n1cnc2ncc(-c3cnn(C)c3)nc21` (stereo not drawn), for which the figures for the IC50 (in assay [1]; with NCI-H1993) were 91.8 nM and more than 10000 nM, respectively.
For `C1=C(c2cnc3ncn(Cc4ccc5ncccc5c4)c3n2)CCNC1`, the figures for the IC50 (in assay [1]; in the assay on NCI-H1993) were 33.2 nM and 6660 nM, respectively.
`c1ccc(-c2cnc3ncn(Cc4ccc5ncccc5c4)c3n2)cc1`: the IC50 came to 17.6 nM in assay [1] and 7490 nM in the assay on NCI-H1993.
On the same counts, the results for `CC(c1cc(F)c2ncccc2c1)n1cnc2ncc(-c3cn[nH]c3)nc21` (stereo not drawn) are 279 nM and more than 10000 nM.
As to `CC(NC/N=C/c1cnc2[nH]ccc2c1)c1ccc2ncccc2c1` (stereo not drawn), the IC50 was 3.3 nM in assay [1] and 956 nM in the assay on NCI-H1993.
With `CC(NC/N=C/c1cnn(CCO)c1)c1ccc2ncccc2c1` (stereo not drawn), the results for the half-maximal inhibitory concentration (IC50) (in assay [1]; in the assay on NCI-H1993) were 12.7 nM and 148 nM, respectively.
In the same order, the values of `Nc1ccc(-c2cnc3ncn(Cc4ccc5ncccc5c4)c3n2)cc1` are 12.4 nM and 4950 nM.
On the same counts, the results for `Cc1c(C(C)n2cnc3ncc(-c4cnn(C)c4)nc32)ccc2ncccc12` (stereo not drawn) are 3.2 nM and 206 nM.
Take `CC(NC/N=C/c1ccccc1)c1ccc2ncccc2c1` (stereo not drawn): the IC50 in assay [1] stood at 5.17 nM; with NCI-H1993, 1220 nM.
For the compound `CC(NC/N=C/C1=CCNCC1)c1ccc2ncccc2c1` (stereo not drawn), the IC50 is 15.2 nM in assay [1] and 2660 nM in the assay with NCI-H1993.
In the same order, the values of `CC(c1cc2cccnc2cc1F)n1cnc2ncc(-c3cn[nH]c3)nc21` (stereo not drawn) are 3.6 nM and 187 nM.
Take `FC(F)(F)c1ccc(-c2cnc3ncn(Cc4ccc5ncccc5c4)c3n2)cc1`: the IC50 in assay [1] was 27.9 nM; with NCI-H1993, more than 10000 nM.
As to `COC(=O)c1ccc(/C=N/CNC(C)c2ccc3ncccc3c2)cc1F` (stereo not drawn), the IC50 in assay [1] was 6.41 nM; in the assay with NCI-H1993, 1110 nM.
Turning to `Cc1c(C(C)n2cnc3ncc(-c4cn[nH]c4)nc32)ccc2ncccc12` (stereo not drawn), the IC50 in assay [1] turned out to be 2.7 nM; in the assay on NCI-H1993 it was 599 nM.
For `Fc1ccccc1-c1cnc2ncn(Cc3ccc4ncccc4c3)c2n1`, the values for the IC50 (in assay [1]; in the assay on NCI-H1993) were 24.6 nM and more than 10000 nM, respectively.
In the same order, the values of `CC(c1cc2cccnc2cc1F)n1cnc2ncc(-c3ccncc3)nc21` (stereo not drawn) are 3.8 nM and 171 nM.
On the same counts, the results for `FC(F)(F)Oc1ccc(-c2cnc3ncn(Cc4ccc5ncccc5c4)c3n2)cc1` are 81.2 nM and more than 10000 nM.
On the same counts, the results for `CC(NC/N=C/c1cnn(C)c1)c1ccc2ncccc2c1` (stereo not drawn) are 2.49 nM and 197 nM.
As to `CC(NC/N=C/c1ccc(C(N)=O)c(F)c1)c1ccc2ncccc2c1` (stereo not drawn), the IC50 in assay [1] is 2.74 nM; in the assay with NCI-H1993, 238 nM.
For `CNC(=O)c1ccc(/C=N/CNC(C)c2ccc3ncccc3c2)cc1F` (stereo not drawn), the IC50 in assay [1] was 3.95 nM; with NCI-H1993 it was 191 nM.
As to `CC(NC/N=C/c1ccnn1C)c1ccc2ncccc2c1` (stereo not drawn), the values for the IC50 (in assay [1]; in the assay with NCI-H1993) were 38.5 nM and 3280 nM, respectively.
Take `CN(C)c1cccc(-c2cnc3ncn(Cc4ccc5ncccc5c4)c3n2)c1`: the IC50 in assay [1] was 40 nM; with NCI-H1993, more than 10000 nM.
On the same counts, the results for `CC(NC/N=C/c1cn[nH]c1)c1ccc2ncccc2c1` (stereo not drawn) are 11.4 nM and 519 nM.
In the same order, the values of `CC(c1cc(F)c2ncccc2c1)n1cnc2ncc(-c3ccncc3)nc21` (stereo not drawn) are 190 nM and more than 10000 nM.
On the same counts, the results for `CC(c1cc2cccnc2cc1F)n1cnc2ncc(-c3cnn(CCO)c3)nc21` (stereo not drawn) are 4.5 nM and 175 nM.
Regarding `C[C@H](c1cc2cccnc2cc1F)n1cnc2ncc(-c3cnn(C)c3)nc21`, the IC50 came out at 1.94 nM in assay [1] and 239 nM with NCI-H1993.
Take `c1cnc2ccc(Cn3cnc4ncc(-c5ccncc5)nc43)cc2c1`: the figures for the IC50 (in assay [1]; in the assay on NCI-H1993) were 17.5 nM and 1160 nM, respectively.
In the same order, the values of `CC(NC/N=C/c1ccncc1)c1ccc2ncccc2c1` (stereo not drawn) are 3.67 nM and 614 nM.
On the same counts, the results for `Cc1c(C(C)n2cnc3ncc(-c4cnn(CCO)c4)nc32)ccc2ncccc12` (stereo not drawn) are 4.2 nM and 726 nM.

The values are drawn from ChEMBL document CHEMBL4477239 (Bioorg Med Chem, 2016).
